The results in this text go back to patent publication US8927561B2, “Pyrimidinedione anti-viral compounds” (Kineta, Inc., priority 2010, dated 2015).

In data set [1] the test system is influenza A virus (A/WSN/33). Briefly: microbe, parasite or virus in culture. The class given is cell-based. On the procedure: (§1) Chemical analogs of KIN500 are tested for in vitro antiviral activity against HCV genotype 2A and influenza A virus (A/WSN/33). Viral protein and RNA levels are assessed following drug treatment using the assays described above.
The subject of a further data set is ISG expression. Briefly: ISG expression enhancement. The class given is cell-based.
The next data set has as its system HCV genotype 2A. Nature of the data set: HCV focus-forming assay (FFA). In kind it is cell-based. The note with it: Hepatitis C virus. How it is done: as §1
Data set [2] relates to Murine Encephalomyocarditis virus (EMCV). Briefly: EMCV antiviral assay (MTS cell viability). The class given is cell-based. To be noted: Huh7 cells, EMCV 250 pfu, 18 h post-infection.

Bounds are passed on as bounds.

With `COc1ccc(NC(=O)Cn2c(=O)n(Cc3ccco3)c(=O)c3sc4ccccc4c32)c(OC)c1` [KIN500, 2-[3-(furan-2-ylmethyl)-2,4-dioxo-3,4-dihydro[1]benzothieno[3,2-d]pyrimidin-1(2H)-yl]-N-(2,4-methoxyphenyl)acetamide], in data set [1] (CC50/IC50), the “Therapeutic index (TI) (CC50/IC50)” value came out at 11. Besides, the IC50 in data set [1] (Influenza A virus, WSN, read-out: Influenza nucleoprotein (NP) ELISA (IC50)) came to 4.6 µM; with HCV genotype 2A it was 19.1 µM. The “enhancement of ISG expression” value in the data set with ISG expression came out at 18 fold. Further, the CC50 in “in vitro” is more than 50 µM. The Cell viability post-infection is given as approximately 0.75 in data set [2] (5 μM), approximately 1.0 in data set [2] (10 μM) and approximately 1.05 in data set [2] (20 μM).

One may read the IC50 as the point on the concentration scale where inhibition reaches its midpoint.
